Source: PubChem BioAssay AID344 (DTP/NCI, 2004)
“And” between values parts separate entries of the source, which are not always exact repeats. Equal entries are not always repeated. Inconclusive results and toxic doses are left out. How the source made its calls: active means survival T/C of 150% or more; inactive means T/C below 125% in these data.

Tested on: mice, LPC-1 plasma cell tumor ip, median survival T/C
Test: NCI In Vivo Anticancer Drug Screen. Data for tumor model Lieberman Plasma Cell No. 1 (LPC-1) (intraperitoneal) in unknown mice
Conditions: endpoint: median survival time, higher = longer survival
Procedure: The antitumor activity of compounds was measured in mice bearing transplantable tumors. Survival or tumor size were measured and the results are expressed as the measurement made in the treated group (T) divided by the measurement made in the vehicle treated control group (C). The tumor model used in this assay is Lieberman Plasma Cell No. 1 (LPC-1) (intraperitoneal) in unknown mice

[1] = dose: 75.0 mg/kg/injection, schedule: Q01DX028 (sc), vehicle: carboxymethylcellulose (CMC)
[2] = dose: 150.0 mg/kg/injection, schedule: Q01DX028 (sc), vehicle: carboxymethylcellulose (CMC)
[3] = dose: 400.0 mg/kg/injection, schedule: Q01DX028 (sc), vehicle: carboxymethylcellulose (CMC)
[4] = dose: 600.0 mg/kg/injection, schedule: Q01DX028 (sc), vehicle: carboxymethylcellulose (CMC)

Measured: T/C

Cn1c2ccccc2c(=O)c2c(O)cc3c(c21)C=C(Br)C(C)(C)O3
inactive: dose: 9.38 mg/kg/injection, schedule: Q01DX028 (sc), vehicle: carboxymethylcellulose (CMC) 97 % of control | dose: 18.75 mg/kg/injection, schedule: Q01DX028 (sc), vehicle: carboxymethylcellulose (CMC) 97 % of control | dose: 37.5 mg/kg/injection, schedule: Q01DX028 (sc), vehicle: carboxymethylcellulose (CMC) 107 % of control | [1] 97 % of control | [2] 95 % of control

C/C(=N\N=C(N)N)c1ccc(NC(=O)Nc2ccc(/C(C)=N/N=C(N)N)cc2)cc1
inactive: dose: 10.0 mg/kg/injection, schedule: Q01DX028 (sc), vehicle: carboxymethylcellulose (CMC) 94 % of control | dose: 20.0 mg/kg/injection, schedule: Q01DX028 (sc), vehicle: carboxymethylcellulose (CMC) 102 % of control | dose: 40.0 mg/kg/injection, schedule: Q01DX028 (sc), vehicle: carboxymethylcellulose (CMC) 105 % of control | dose: 80.0 mg/kg/injection, schedule: Q01DX028 (sc), vehicle: carboxymethylcellulose (CMC) 100 % of control

Nc1cc2ncccc2c2ncccc12
inactive: dose: 37.5 mg/kg/injection, schedule: Q01DX028 (sc), vehicle: steriod suspending solution 104 % of control | dose: 75.0 mg/kg/injection, schedule: Q01DX028 (sc), vehicle: steriod suspending solution 104 % of control | dose: 150.0 mg/kg/injection, schedule: Q01DX028 (sc), vehicle: steriod suspending solution 112 % of control

CS(=O)(=O)OCCN(CCOS(C)(=O)=O)c1ccc(C=O)cc1
inactive: dose: 40.0 mg/kg/injection, schedule: Q01DX028 (sc), vehicle: saline 122 % of control
active: dose: 3.0 mg/kg/injection, schedule: Q01DX028 (sc), vehicle: saline 160 % of control | dose: 5.0 mg/kg/injection, schedule: Q01DX028 (sc), vehicle: saline 166 % of control and 192 % of control | dose: 8.3 mg/kg/injection, schedule: Q01DX028 (sc), vehicle: saline 226 % of control | dose: 10.0 mg/kg/injection, schedule: Q01DX028 (sc), vehicle: saline 202 % of control | dose: 14.0 mg/kg/injection, schedule: Q01DX028 (sc), vehicle: saline 250 % of control | dose: 20.0 mg/kg/injection, schedule: Q01DX028 (sc), vehicle: saline 261 % of control

C/C(=N/N=C(N)N)c1ccc(NC(=O)Nc2ccc(/C(C)=N/N=C(N)N)cc2)cc1
inactive: dose: 53.0 mg/kg/injection, schedule: Q01DX028 (sc), vehicle: carboxymethylcellulose (CMC) 97 % of control | dose: 88.0 mg/kg/injection, schedule: Q01DX028 (sc), vehicle: carboxymethylcellulose (CMC) 92 % of control | dose: 147.0 mg/kg/injection, schedule: Q01DX028 (sc), vehicle: carboxymethylcellulose (CMC) 94 % of control | dose: 245.0 mg/kg/injection, schedule: Q01DX028 (sc), vehicle: carboxymethylcellulose (CMC) 97 % of control

NC(CSC(c1ccccc1)(c1ccccc1)c1ccccc1)C(=O)O (centres undefined)
inactive: dose: 7.5 mg/kg/injection, schedule: Q01DX028 (sc), vehicle: saline 102 % of control | dose: 15.0 mg/kg/injection, schedule: Q01DX028 (sc), vehicle: saline 105 % of control | dose: 60.0 mg/kg/injection, schedule: Q01DX028 (sc), vehicle: saline 105 % of control

CCOc1ccccc1C(=O)Nc1ccc(Br)cc1
inactive: dose: 180.0 mg/kg/injection, schedule: Q01DX Z (sc), vehicle: carboxymethylcellulose (CMC) 97 % of control | dose: 266.0 mg/kg/injection, schedule: Q01DX Z (sc), vehicle: carboxymethylcellulose (CMC) 105 % of control | dose: 400.0 mg/kg/injection, schedule: Q01DX Z (sc), vehicle: carboxymethylcellulose (CMC) 100 % of control | dose: 600.0 mg/kg/injection, schedule: Q01DX Z (sc), vehicle: carboxymethylcellulose (CMC) 94 % of control

CN(C)c1nc(N(C)C)nc(N(C)C)n1
inactive: dose: 50.0 mg/kg/injection, schedule: Q01DX009 (ip), vehicle: olive oil, sesame oil, peanut oil 92 % of control | dose: 100.0 mg/kg/injection, schedule: Q01DX009 (ip), vehicle: other 122 % of control | dose: 200.0 mg/kg/injection, schedule: Q01DX009 (ip), vehicle: other 110 % of control | dose: 400.0 mg/kg/injection, schedule: Q01DX009 (ip), vehicle: other 106 % of control

Cc1cc(N(CCCl)CCCl)ccc1C=Nc1ccccc1-c1ccccc1
inactive: dose: 23.0 mg/kg/injection, schedule: Q01DX015 (sc), vehicle: carboxymethylcellulose (CMC) 92 % of control | dose: 180.0 mg/kg/injection, schedule: Q01DX015 (sc), vehicle: carboxymethylcellulose (CMC) 102 % of control

CCOC(N)=O
active: dose: 400.0 mg/kg/injection, schedule: Q01DX028 (sc), vehicle: saline 210 % of control | dose: 512.0 mg/kg/injection, schedule: Q01DX028 (sc), vehicle: other 175 % of control
inactive: dose: 128.0 mg/kg/injection, schedule: Q01DX028 (sc), vehicle: other 98 % of control

O=c1ccc2cc(OC3OC(CO)C(O)C(O)C3O)c(O)cc2o1 (centres undefined)
inactive: [3] 100 % of control | [4] 100 % of control | dose: 900.0 mg/kg/injection, schedule: Q01DX028 (sc), vehicle: carboxymethylcellulose (CMC) 97 % of control

O=c1ccc2ccc(O)cc2o1
inactive: dose: 266.0 mg/kg/injection, schedule: Q01DX028 (sc), vehicle: carboxymethylcellulose (CMC) 102 % of control | [3] 97 % of control | [4] 97 % of control

CS(=O)(=O)OCCN(CCOS(C)(=O)=O)c1ccc(N=O)cc1
inactive: dose: 0.25 mg/kg/injection, schedule: Q01DX028 (sc), vehicle: saline 105 % of control | dose: 0.5 mg/kg/injection, schedule: Q01DX028 (sc), vehicle: saline 107 % of control | dose: 1.0 mg/kg/injection, schedule: Q01DX028 (sc), vehicle: saline 120 % of control | dose: 2.0 mg/kg/injection, schedule: Q01DX028 (sc), vehicle: saline 102 % of control and 115 % of control | dose: 2.7 mg/kg/injection, schedule: Q01DX028 (sc), vehicle: saline 121 % of control | dose: 4.0 mg/kg/injection, schedule: Q01DX028 (sc), vehicle: saline 94 % of control and 100 % of control | dose: 6.0 mg/kg/injection, schedule: Q01DX028 (sc), vehicle: saline 94 % of control
active: dose: 1.8 mg/kg/injection, schedule: Q01DX028 (sc), vehicle: saline 157 % of control

O=NN(CCCl)C(=O)NC1CCCCC1
inactive: dose: 33.0 mg/kg/injection, schedule: Q01DX028 (sc), vehicle: carboxymethylcellulose (CMC) 111 % of control | [1] 102 % of control

CCOC(=O)C(Cc1ccc(N(CCCl)CCCl)cc1)NC=O (centres undefined)
active: dose: 18.7 mg/kg/injection, schedule: Q01DX028 (sc), vehicle: carboxymethylcellulose (CMC) 176 % of control | [1] 184 % of control
inactive: [2] 115 % of control | dose: 300.0 mg/kg/injection, schedule: Q01DX028 (sc), vehicle: carboxymethylcellulose (CMC) 92 % of control
